# Measurements reported in patent US6846928B2, “Compositions useful as inhibitors of protein kinases” (Vertex Pharmaceuticals Incorporated, priority 2002, dated 2005).
row,melting point,Compound
1,161 to 162 °C,"c1ccc(-c2nc(Nc3ncc(C4CC4)s3)c3ccccc3n2)cc1 [II-36, (5-Cyclopropyl-thiazol-2-yl)-(2-phenyl-quinazolin-4-yl)-amine]"
2,215 to 216 °C,"Cc1cnc(Nc2nc(-c3ccccc3)nc3ccccc23)s1 [II-35, (5-Methyl-thiazol-2-yl)-(2-phenyl-quinazolin-4-yl)-amine]"
3,219 to 221 °C,"c1ccc(-c2nc(Nc3nccs3)c3ccccc3n2)cc1 [II-34, (2-Phenyl-quinazolin-4-yl)-(thiazol-2-yl)-amine]"
